Assay results as given in publication PMC11853660 (Biomimetics, 2025).
Where a SMILES comes first, the peptide text is derived from it. [ ]: non-standard residue; d: D form. pS = N[C@@H](COP(=O)(O)O)C(=O)O

Experiments:
[1] = Self-degradation of P26 without enzymes (LC/MS); type: physicochemical; conditions: P26 solution 0.2 mg/mL, 37 °C, 7 days
Protocol: P26 amelogenin peptide was synthetized by Biomer Technology (San Francisco, CA, USA). P26 solutions (0.2 mg/mL) were prepared as previously described and incubated at 37 °C for 7 days and subsequently analyzed by liquid chromatography/mass spectrometry (LC/MS; Scripps Research Institute, San Diego, CA, USA). Significant peaks in the MS spectra were matched to degradation products of P26 based on their m/z.

[2] = system: MMP8, MMP1, α-amylase, and lysozyme; experiment: Peptide stability in artificial saliva with individual salivary enzymes (HPLC peak area); type: in vitro ADME; conditions: individual enzymes at native concentrations, peptide 0.2 mg/mL, 30 min, 37 °C, RP-HPLC C18 peak area, triplicate
Protocol: (§1) Solutions of MMP8, MMP1 (R&D systems, Minneapolis, MN, USA), α-amylase, and lysozyme (Sigma, Burlington, MA, USA) were prepared following the manufacturer’s instructions. Prior to each use, pro-MMP1 and pro-MMP8 were activated with 10 mM APMA according to the manufacturer’s protocol (R&D Systems). Successful cleavage of both enzymes into their active form was confirmed using SDS-PAGE gel electrophoresis. To better mimic in vivo oral conditions, all enzymes were used at concentrations found in healthy individuals, as reported in the literature: MMP8 (final 0.286 μg/mL; [30], MMP1 (final 20 pg/mL [31], α-amylase (final 119 U/mL; [32], and lysozyme (final 0.4 μg/mL [30]. A total of 125 μL of aqueous P26 or P26-CS solutions (0.2 mg/mL final) was added to an equal volume of artificial saliva (AS; 1.2 mM CaCl2·2H2O, 50 mM HEPES buffer, 0.72 mM KH2PO4, 16 mM KCl, 4.5 mM NH4Cl, 0.2 mM MgCl2·6H20, and 1 ppm NaF). Then, the enzymes were mixed in and immediately placed in a water bath at 37 °C. An initial collection was (t = 0) carried out and analyzed by Reverse-phase High-Performance Liquid Chromatography (HPLC), as described below. Incubations for each sample were performed in triplicate. To quantify the effect of each enzyme, individual enzymes were incubated with 125 μL of P26-CS and 125 μL of AS. […]

[3] = system: α-amylase; experiment: Peptide stability in artificial saliva with α-amylase (HPLC); type: in vitro ADME; conditions: 37 °C
Protocol: as §1

[4] = system: MMP1, MMP8, α-amylase, and lysozyme; experiment: Peptide stability in artificial saliva with all salivary enzymes simultaneously (HPLC); type: in vitro ADME; conditions: all enzymes at native concentrations, 30 min, 37 °C, n = 3
Protocol: as §1

[5] = P26 in aqueous solution, without enzymes; conditions: 37 °C, up to 7 days

Row | Molecule | self-degradation of the peptide without enzymes [1] | peptide substrate remaining (% area of initial HPLC peak at t = 0) [2] | degradation products at diluted amylase versus native ratio ([3]; α-amylase 23.87 U/mL (5× dilution, enzyme to substrate 1:10) compared with 1:2, artificial saliva, HPLC spectra) | degradation by amylase relative to other enzymes ([3]; α-amylase 119 U/mL (enzyme to substrate 1:2), artificial saliva, 5 h, HPLC) | peptide stability, P26 versus P26 with CS [4] | cleaved bond [5]
1 | CSCC[C@H](N)C(=O)N1CCC[C@H]1C(=O)N[C@@H](CC(C)C)C(=O)N1CCC[C@H]1C(=O)N[C@@H](COP(=O)(O)O)C(=O)N[C@@H](Cc1ccc(O)cc1)C(=O)N[C@@H](CCC(=O)O)C(=O)N[C@H](C(=O)N[C@@H](CC(C)C)C(=O)N[C@H](C(=O)N1CCC[C@H]1C(=O)N[C@@H](CC(C)C)C(=O)N[C@@H](CCCCN)C(=O)N[C@@H](Cc1c[nH]c2ccccc12)C(=O)N1CCC[C@H]1C(=O)N[C@@H](CO)C(=O)N[C@H](C(=O)N[C@@H](CC(=O)O)C(=O)N[C@@H](CCCCN)C(=O)N[C@H](C(=O)N[C@@H](CCCCN)C(=O)N[C@@H](CCCNC(=N)N)C(=O)N[C@@H](CCC(=O)O)C(=O)N[C@@H](CCC(=O)O)C(=O)N[C@H](C(=O)N[C@@H](CC(=O)O)C(=O)O)C(C)C)[C@@H](C)O)[C@@H](C)O)[C@@H](C)O)C(C)C [P26] (H-MPLP[pS]YEVLTPLKWPSTDKTKREEVD-OH) | substantially resistant to self-degradation | 90–100% | lesser degradation products | highest levels of degradation amongst all the enzymes used | comparably stable | –
2 | MPLPS(PHOS)YEVLTPLKWPSTDKTKREEVD | – | – | – | – | – | M-P and V-D and E-E and L-P and P-S(PHOS)
